Blank lines part the entries; values can stand above or below the compound they belong to.
Columns and labels:
[1] = Encapsulation of steroids into PLGA nanoparticles (steroid content by HPLC); type: physicochemical; details: for Steroid/nanoparticle (wt %): PLGA nanoparticles
Method: Each mixture was centrifuged at 12,000 rpm for 5 min and the supernatant was discarded to obtain precipitates in the form of zinc-steroids or iron-steroids. […] To each of the resultant solutions, an aqueous solution of zinc acetate was added and the mixture was allowed to stand for 2 hours at room temperature. […] The mixture was then centrifuged at 20,000 G for 20 min. Following the removal of the supernatant, the residue was resuspended in water and the suspension was again centrifuged to wash the nanoparticles. […] Similarly, the amount of water-insoluble steroid was determined for the nanoparticles prepared by different method without metal ions.

[2] = Formation of water-insoluble precipitates of drugs with metal ions (turbidity observed); type: physicochemical; details: for Formation of precipitates with metal ions: 3N HCl, 20 mM drug in 0.2M Tris-HCl pH 7.8
[3] = as above; type: physicochemical; details: 20 mM drug in 0.2M Tris-HCl pH 7.8 + equal volume 100 mM metal ion
Method: Compounds shown in Table 1 below were used to as the low-molecular weight, water-soluble and non-peptide drug having phosphate groups. […] The solution was then added to equal volume of 100 mM aqueous solutions of different metal ions. The turbidity of each of the resulting mixtures was observed.

inflammatory sites = assay: Accumulation of nanoparticles in inflammatory sites (carrageenin leg edema, fluorescence microscopy); type: in vivo, male Lewis rats; details: single tail vein injection 4 hours after carrageenin; 2 hours after administration
Method: Inflammation was induced by injecting 100 μl physiological saline containing 1% carrageenin in the left hind paw of male Lewis rats. After 4 hours, single dosages of rhodamine-encapsulating nanoparticles of two different sizes (200 nm and 500 nm) were injected into a tail vein. 2 hours after administration, the resultant leg edema was cut and cryostat sections were prepared.
As controls, one group was administered with physiological saline and another group with rhodamine alone.

Steroid/nanoparticle (wt %) [1]: 0.47 wt %
Compound: CCC(=O)OCC(=O)[C@@]1(OC(=O)CC)[C@@H](C)C[C@H]2[C@@H]3CCC4=CC(=O)C=C[C@]4(C)[C@@]3(F)[C@@H](O)C[C@@]21C [BDP, betamethasone dipropionate]

Formation of precipitates with metal ions [2]: −
dispersion state of the nanoparticles ([1]; 500 μl or less of acetone): formed aggregates
dispersion state of the nanoparticles ([1]; 700 μl acetone): remained stably dispersed
Steroid/nanoparticle (wt %) ([1]; zinc precipitate of 5 mg, acetone 700 μl): 7.34 wt %
Steroid/nanoparticle (wt %) ([1]; zinc precipitate of 5 mg, acetone 900 μl): 4.28 wt %
Steroid/nanoparticle (wt %) ([1]; zinc precipitate of 5 mg, acetone 1100 μl): 3.46 wt %
Steroid/nanoparticle (wt %) ([1]; zinc precipitate of 5 mg, acetone 1300 μl): 2.71 wt %
Steroid/nanoparticle (wt %) ([1]; zinc precipitate of 5 mg, acetone 1500 μl): 1.93 wt %
Formation of precipitates with metal ions ([3]; CuCl2): +++
Formation of precipitates with metal ions ([3]; FeCl2): +++
Formation of precipitates with metal ions ([3]; FeCl3): +++
Formation of precipitates with metal ions ([3]; MgCl2): −
Formation of precipitates with metal ions ([3]; NiCl2): −
Formation of precipitates with metal ions ([3]; Zn(CH3COO)2): +++
Formation of precipitates with metal ions ([3]; ZnCl2): +++
Compound: C[C@H]1C[C@H]2[C@@H]3CCC4=CC(=O)C=C[C@]4(C)[C@@]3(F)[C@@H](O)C[C@]2(C)[C@@]1(O)C(=O)COP(=O)(O)O [betamethasone phosphate]

Formation of precipitates with metal ions [2]: −
molar ratio with respect to zinc ion at which precipitate formation was most significant ([2]; zinc ion, molar ratio varied): approximately 1
Formation of precipitates with metal ions ([3]; CuCl2): +++
Formation of precipitates with metal ions ([3]; FeCl2): +++
Formation of precipitates with metal ions ([3]; FeCl3): +++
Formation of precipitates with metal ions ([3]; MgCl2): −
Formation of precipitates with metal ions ([3]; NiCl2): −
Formation of precipitates with metal ions ([3]; Zn(CH3COO)2): +++
Formation of precipitates with metal ions ([3]; ZnCl2): +++
Compound: Cc1cc2nc3c(=O)[nH]c(=O)nc-3n(C[C@H](O)[C@H](O)[C@H](O)COP(=O)(O)O)c2cc1C [riboflavin phosphate]

Steroid/nanoparticle (wt %) [1]: 0 wt %
Compound: hydrocortisone phosphate [HP-Na]

More lines, now with the values behind:

Compound: C[C@H]1C[C@H]2[C@@H]3CCC4=CC(=O)C=C[C@]4(C)[C@@]3(F)[C@@H](O)C[C@]2(C)[C@@]1(O)C(=O)COP(=O)(O)O [BP-Fe, betamethasone phosphate]
Steroid/nanoparticle (wt %) [1]: 1.15 wt %

Compound: C[C@H]1C[C@H]2[C@@H]3CCC4=CC(=O)C=C[C@]4(C)[C@@]3(F)[C@@H](O)C[C@]2(C)[C@@]1(O)C(=O)COP(=O)(O)O [BP-Na, betamethasone phosphate]
Steroid/nanoparticle (wt %) [1]: 0 wt %

Compound: C[C@H]1C[C@H]2[C@@H]3CCC4=CC(=O)C=C[C@]4(C)[C@@]3(F)[C@@H](O)C[C@]2(C)[C@@]1(O)C(=O)COP(=O)(O)O [BP-Zn, betamethasone phosphate]
Steroid/nanoparticle (wt %) [1]: 2.03 wt %

Compound: C[C@@H]1C[C@H]2[C@@H]3CCC4=CC(=O)C=C[C@]4(C)[C@@]3(F)[C@@H](O)C[C@]2(C)[C@@]1(O)C(=O)COP(=O)(O)O [DP-Na, dexamethasone phosphate]
Steroid/nanoparticle (wt %) [1]: 0 wt %

Compound: C[C@@H]1C[C@H]2[C@@H]3CCC4=CC(=O)C=C[C@]4(C)[C@@]3(F)[C@@H](O)C[C@]2(C)[C@@]1(O)C(=O)COP(=O)(O)O [DP-Zn, dexamethasone phosphate]
Steroid/nanoparticle (wt %) [1]: 1.15 wt %

Compound: C[C@@H]1C[C@H]2[C@@H]3CCC4=CC(=O)C=C[C@]4(C)[C@@]3(F)[C@@H](O)C[C@]2(C)[C@@]1(O)C(=O)COP(=O)(O)O [Dexamethasone phosphate, dexamethasone phosphate]
Formation of precipitates with metal ions [2]: −
Formation of precipitates with metal ions ([3]; CuCl2): +++
Formation of precipitates with metal ions ([3]; FeCl2): +++
Formation of precipitates with metal ions ([3]; FeCl3): +++
Formation of precipitates with metal ions ([3]; MgCl2): −
Formation of precipitates with metal ions ([3]; NiCl2): +
Formation of precipitates with metal ions ([3]; Zn(CH3COO)2): +++
Formation of precipitates with metal ions ([3]; ZnCl2): +++

Compound: CC(=O)OCC(=O)[C@@]1(O)[C@@H](C)C[C@H]2[C@@H]3CCC4=CC(=O)C=C[C@]4(C)[C@@]3(F)[C@@H](O)C[C@@]21C [betamethasone acetate]
Steroid/nanoparticle (wt %) [1]: 0.15 wt %

Compound: Naphthyl-phosphate
Formation of precipitates with metal ions [2]: −
Formation of precipitates with metal ions ([3]; CuCl2): −
Formation of precipitates with metal ions ([3]; FeCl2): +++
Formation of precipitates with metal ions ([3]; FeCl3): +++
Formation of precipitates with metal ions ([3]; MgCl2): −
Formation of precipitates with metal ions ([3]; NiCl2): −
Formation of precipitates with metal ions ([3]; Zn(CH3COO)2): +++
Formation of precipitates with metal ions ([3]; ZnCl2): +++

Compound: hydrocortisone phosphate [HP-Zn]
Steroid/nanoparticle (wt %) [1]: 1.05 wt %

Compound: rhodamine
accumulation of the nanoparticles in the inflammatory sites (fluorescence in tissue sections) (inflammatory sites): No significant accumulation

Reference: US20060233883A1, “Intravenous nanoparticles for targeting drug delivery and sustained drug release” (priority 2003, published 2006)
